The text below walks through data of ChEMBL document CHEMBL1806423, “Cytotoxic 1,2-dialkynylimidazole-based aza-enediynes: aza-Bergman rearrangement rates do not predict cytotoxicity” (J Med Chem, 2011).

One data set deals with A549. In words: Cytotoxicity against human A549 cells after 72 hrs by alamar blue assay. The class given is functional, cell-based. The note with it: A549, 72 h.
The target in another data set is Albumin (Bos taurus, UniProt P02769). Kind of data set: Induction of cleavage of bovine serum albumin at 500 uM after 16 hrs using Coomassie blue by SDS-PAGE. The note with it: cattle.
Chain of Albumin (P02769 whole entry): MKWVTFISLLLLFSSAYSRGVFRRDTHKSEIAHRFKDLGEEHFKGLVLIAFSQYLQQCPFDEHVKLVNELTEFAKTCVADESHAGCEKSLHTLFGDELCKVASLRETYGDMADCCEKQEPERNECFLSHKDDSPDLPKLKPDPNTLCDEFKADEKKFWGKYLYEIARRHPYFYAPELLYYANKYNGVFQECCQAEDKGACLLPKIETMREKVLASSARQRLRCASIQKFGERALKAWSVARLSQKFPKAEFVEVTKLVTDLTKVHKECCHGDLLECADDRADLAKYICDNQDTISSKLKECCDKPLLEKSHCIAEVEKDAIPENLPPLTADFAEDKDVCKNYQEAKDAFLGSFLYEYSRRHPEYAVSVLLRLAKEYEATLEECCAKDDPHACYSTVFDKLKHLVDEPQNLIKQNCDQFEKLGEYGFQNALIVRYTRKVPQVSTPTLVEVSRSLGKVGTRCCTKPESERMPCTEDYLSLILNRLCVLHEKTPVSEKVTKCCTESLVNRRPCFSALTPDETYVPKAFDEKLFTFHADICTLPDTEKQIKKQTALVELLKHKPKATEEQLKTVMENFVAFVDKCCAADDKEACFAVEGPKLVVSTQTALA
Data set [1] is described as follows: Thermal stability of the compound assessed as half life at 110 degC. The class given is physicochemical.
The subject of the next data set is Nucleic Acid. In words: Induction of DNA cleavage of supercoiled phiX174 plasmid DNA assessed as relaxed DNA at 100 uM after 16 hrs by gel electrophoresis. The class given is nucleic-acid assay. The note with it: Enterobacteria phage phiX174.

The source made the active and inactive calls. The calls are words filed in the database; no cut-off is given here. Bounds are passed on as bounds.

As a reminder, the IC50 is the concentration at which inhibition is half-maximal. The compound `OCC#Cc1nccn1C#CCO` had an IC50 with A549 of 1.9 µM.

The term half-life denotes how long it takes for the measured level to halve. Turning to `C#Cn1ccnc1C#Cc1ccc(OC)cc1`, at Albumin, the Activity result is “Not Active”. The half-life in data set [1] is 17 h. In the data set with A549, the IC50 was 0.5 µM. The result with Nucleic Acid was inactive. The compound `C#Cn1cc(-c2ccc(F)cc2)nc1C#CCCO` registered an IC50 in the data set on A549 of 2.6 µM. Still for that read-out and setting: next, `C#Cn1ccnc1C#CCOC`: 1 µM; `C#Cc1nc2ccccc2n1C#C`: 2 µM. On the same count and under the same terms, the value for `C#Cn1cnc(-c2ccccc2)c1` was 1.1 µM; that for `C#Cc1nc(-c2ccccc2)cn1C#C` was 2.5 µM; that for `C#Cn1c(C#Cc2ccc(OC)cc2)nc2ccccc21` was 2.9 µM. For the compound `C#Cn1ccnc1C#Cc1ccc([N+](=O)[O-])cc1`, the Activity entry at Albumin was “Not Active”. In addition, the half-life in data set [1] was 32 h. In addition, the IC50 in the data set on A549 is 0.12 µM. Also, the outcome in the data set on Nucleic Acid was inactive. `C#Cc1nccn1C#Cc1ccccc1`: the IC50 in the data set on A549 came to 5 µM. Same read-out and setting: next, `C#Cn1ccnc1C#Cc1ccc(C(F)(F)F)cc1`: 6 µM. Turning to `C#Cc1nc(-c2ccc(F)cc2)cn1C#C`, on Albumin, the Activity result is “Not Active”. Further, the IC50 with A549 is 2.6 µM. Moreover, the result in the data set with Nucleic Acid was inactive. Consider `COc1ccc(C#Cc2nccn2/C=C\Sc2ccccc2)cc1`, for which, in the data set on A549, the IC50 was found to be 10.1 µM. For the compound `C(#Cn1ccnc1CCc1ccccc1)c1ccccc1`, in the data set on A549, the IC50 is > 15 µM. As to `C#Cn1ccnc1C#Cc1ccc(C(C)=O)cc1`, the IC50 in the data set on A549 worked out at 0.5 µM. Same read-out and setting: the value for `C#Cn1ccnc1C#Cc1ccccc1` was 6 µM; that for `C#Cn1cc(-c2ccccc2)nc1C#Cc1ccc(OC)cc1` was 2 µM; that for `C#Cn1ccnc1C#Cc1cc(C(F)(F)F)cc(C(F)(F)F)c1` was 2.5 µM. For the compound `C#Cn1ccnc1C#Cc1ccc(C(C)(C)C)cc1`, the half-life in data set [1] is 16 h. In addition, in the data set on A549, the half-maximal inhibitory concentration (IC50) was found to be 2.5 µM.

With `COc1ccc(C#Cc2nccn2C)cc1`, the IC50 with A549 was > 15 µM. In the data set on A549, `C(#Cn1ccnc1)c1ccccc1` registered an IC50 of 9.2 µM.
